Laboratory results as given in US4250170A, “Antibacterial agents Bu-2349A and B and method of using same” (Bristol-Myers Company, priority 1979, dated 1981).
Like-named read-outs stand apart in the source and are kept apart here.

What was measured:
Assay type in all cases: cell-based
[1] = test system: Bacteroides fragilis (Bf-3); assay: MIC against anaerobic bacteria; conditions: 18 h, Table 4, GAM Medium, pH 7
[2] = test system: Peptostreptococcus anaerobium B43 (Pb-1); assay: MIC against anaerobic bacteria; conditions: 18 h, Table 4, GAM Medium, pH 7
[3] = test system: Pseudomonas aeruginosa (Pa-3); assay: MIC, two-fold agar dilution; conditions: 18 h
Method: (§1) The minimum inhibitory concentrations (MIC) of Bu-2349A and B were determined against a wide variety of bacteria by the two-fold agar dilution method. Mueller-Hinton agar medium was generally used for the determination of bacterial MIC except for species of Streptococcus, Neisseria and Hemophilus for which Gonococcus agar medium (GC agar, Nissui Co., Tokyo) was used. Gifu anaerobe agar medium (GAM agar, Eiken Co., Tokyo) was used for anaerobic bacteria. The MIC's were determined after overnight incubation at 37° C. with an initial inoculum equivalent to a 10^-4 dilution of an 18-hour culture for the aerobic and anaerobic bacteria, except for Streptococcus, Neisseria and Hemophilus for which a 10^-2 dilution was used.
(§2) The influence of inoculum size on MIC was tested on Mueller-Hinton agar using an inoculum of […], 10^-2 or 10^-4 dilution of the overnight culture of test organisms.
(§3) The effect of media pH on the MIC's of Bu-2349A was determined at three pH levels (6, 7 and 8) using Mueller-Hinton agar.
(§4) The media effect on the MIC's of Bu-2349A was tested using four kinds of assay media: Mueller-Hinton agar (MHA), nutrient agar (NA), heart infusion agar (HIA) and brain heart infusion agar (BHIA). The pH was adjusted at 7 and a 10^-4 dilution of overnight culture was used for the inoculum.

[4] = test system: Escherichia coli ML-1630 (Ec-5), APH(3')-1; assay: MIC, two-fold agar dilution; conditions: 18 h
Method: as §1, §2, §3, §4

[5] = test system: Bacillus subtilis PCI 219 (Bs-1); assay: MIC, two-fold agar dilution; conditions: 18 h
Method: as §1, §2, §3, §4

[6] = test system: Proteus mirabilis (Pm-1); assay: MIC, two-fold agar dilution
Method: as §1, §2, §3, §4

[7] = test system: Staphylococcus aureus 209P (Sa-1); assay: MIC, two-fold agar dilution; conditions: 18 h
Method: as §1, §2, §3, §4

[8] = test system: Proteus morganii (Pg-1); assay: MIC, two-fold agar dilution; conditions: Morganella morganii, 18 h
Method: as §1, §2, §3, §4

[9] = test system: Escherichia coli Juhl (Ec-3); assay: MIC, two-fold agar dilution; conditions: 18 h
Method: as §1, §2, §3, §4

[10] = test system: Klebsiella pneumoniae (Kp-2); assay: MIC, two-fold agar dilution; conditions: 18 h
Method: as §1, §2, §3, §4

[11] = test system: Streptococcus pyogenes (Sp-3); assay: MIC, two-fold agar dilution; conditions: 18 h, Table 3, GC agar, 10^-2 dilution
[12] = Table 3, Mueller-Hinton agar, 10^-4 dilution
[13] = pH 6, Table 6, Mueller-Hinton Agar, 10^-4 dilution, pH 6
[14] = pH 7, Table 5, Mueller-Hinton Agar, pH 7, inoculum 10^0 dil.
[15] = pH 7, Table 5, Mueller-Hinton Agar, pH 7, inoculum 10^-2 dil.
[16] = pH 7, Table 5, Mueller-Hinton Agar, pH 7, inoculum 10^-4 dil.
[17] = pH 7, Table 6, Mueller-Hinton Agar, 10^-4 dilution, pH 7
[18] = pH 7, Table 7, pH 7, 10^-4 dilution, BHIA
[19] = pH 7, Table 7, pH 7, 10^-4 dilution, HIA
[20] = pH 7, Table 7, pH 7, 10^-4 dilution, MHA
[21] = pH 7, Table 7, pH 7, 10^-4 dilution, NA
[22] = pH 8, Table 6, Mueller-Hinton Agar, 10^-4 dilution, pH 8

Measured: MIC

C=C1OC(OC2C(CO)OC(Oc3ccc(C(=O)NCCCNCCCCNCCCCN)cc3)C2O)C(O)C(OC2OC(CO)C(OC3OC(C)C(N)C(O)C3NC(=O)C(C)N)C(O)C2O)C1O (stereo not shown) [Bu-2349A]
> 100 µg/mL: [1] | [2] | [11]
6.3 µg/mL: [3]; [21] | [4]; [14] | [5]; [14] | [5]; [18] | [6]; Proteus mirabilis, 18 h, Table 3, Mueller-Hinton agar, 10^-4 dilution, read-out: MIC | [6]; Proteus mirabilis, 18 h, pH 7, Table 7, pH 7, 10^-4 dilution, HIA, read-out: MIC | [6]; Proteus mirabilis, 18 h, pH 7, Table 7, pH 7, 10^-4 dilution, MHA, read-out: MIC | [7]; [14] | [8]; [21] | [9]; [14] | [9]; [18] | [10]; pH 7, Table 5, Mueller-Hinton Agar, pH 7, inoculum 10^-2 dil., read-out: MIC
> 50 µg/mL: [3]; [13] | [3]; [14] | [6]; Proteus mirabilis, 18 h, pH 6, Table 6, Mueller-Hinton Agar, 10^-4 dilution, pH 6, read-out: MIC | [8]; [13] | [8]; [14]
50 µg/mL: [3]; [15] | [3]; [20] | [4]; [13] | [5]; [13] | [6]; Proteus mirabilis, 18 h, pH 7, Table 5, Mueller-Hinton Agar, pH 7, inoculum 10^0 dil., read-out: MIC | [7]; [13] | [8]; [15] | [10]; pH 6, Table 6, Mueller-Hinton Agar, 10^-4 dilution, pH 6, read-out: MIC
1.6 µg/mL: [4]; Table 3, Mueller-Hinton agar, 10^-4 dilution, enzyme APH(3')-1 | [4]; [19] | [4]; [21] | [4]; [22] | [5]; [12] | [5]; [19] | [5]; [22] | [7]; [19] | [7]; [21] | [7]; [22] | [9]; [12] | [9]; [19] | [9]; [22] | [10]; pH 7, Table 7, pH 7, 10^-4 dilution, HIA, read-out: MIC | [10]; pH 7, Table 7, pH 7, 10^-4 dilution, NA, read-out: MIC
12.5 µg/mL: [3]; [19] | [3]; [22] | [6]; Proteus mirabilis, 18 h, pH 7 | [6]; Proteus mirabilis, 18 h, pH 8 | [6]; Table 6, Mueller-Hinton Agar, 10^-4 dilution, pH 7 | [6]; Table 7, pH 7, 10^-4 dilution, BHIA | [10]; pH 7
3.1 µg/mL: [4]; [15] | [4]; [16] | [4]; [17] | [4]; [18] | [4]; [20] | [5]; [15] | [5]; [16] | [5]; [17] | [5]; [20] | [6]; Proteus mirabilis, 18 h, pH 7, Table 7, pH 7, 10^-4 dilution, NA, read-out: MIC | [7]; [12] | [7]; [15] | [7]; [16] | [7]; [17] | [7]; [18] | [7]; [20] | [9]; [15] | [9]; [16] | [9]; [17] | [9]; [20] | [9]; [21] | [10]; Table 3, Mueller-Hinton agar, 10^-4 dilution, read-out: MIC | [10]; pH 7, Table 5, Mueller-Hinton Agar, pH 7, inoculum 10^-4 dil., read-out: MIC | [10]; pH 7, Table 6, Mueller-Hinton Agar, 10^-4 dilution, pH 7, read-out: MIC | [10]; pH 7, Table 7, pH 7, 10^-4 dilution, BHIA, read-out: MIC | [10]; pH 7, Table 7, pH 7, 10^-4 dilution, MHA, read-out: MIC | [10]; pH 8, Table 6, Mueller-Hinton Agar, 10^-4 dilution, pH 8, read-out: MIC
0.8 µg/mL: [5]; [21]
25 µg/mL: [3]; [12] | [3]; [16] | [3]; [17] | [3]; [18] | [6]; Proteus mirabilis, 18 h, pH 7, Table 5, Mueller-Hinton Agar, pH 7, inoculum 10^-2 dil., read-out: MIC | [8]; [12] | [8]; [16] | [8]; [17] | [8]; [18] | [8]; [19] | [8]; [20] | [8]; [22] | [9]; [13]
